This is an account of results in patent US6531160B2, “Microcapsules with an aqueous core containing at least one water-soluble cosmetic or dermatological active principle and cosmetic or dermatological compositions containing them” (L′Oreal, priority 2000, dated 2003).

The data set is described as follows: Loss of active agent after storage for 2 months at 45° C. (microcapsule suspension vs control aqueous solution). It counts as physicochemical. As to conditions: control aqueous solution of the active agent, same weight concentration. As for the experimental part: The microcapsule suspension thus obtained is stored for 2 months at a temperature of 45° C. After this storage period, the loss of cytochrome C from the suspension and that of a control aqueous solution of cytochrome C having the same weight concentration of 0.25% and which has been stored under the same conditions, are measured.
The microcapsule suspension thus obtained is stored for 2 months at a temperature of 45° C. After this storage period, the loss of chlorophylline from the suspension and that of a control aqueous solution of chlorophylline having the same weight concentration of 0.1%, and which has been stored under the same conditions, are measured.
The microcapsule suspension thus obtained is stored for 2 months at a temperature of 45° C. After this storage period, the loss of ascorbic acid from the suspension and that of a control aqueous solution of ascorbic acid having the same weight concentration of 5% and also a pH of 6, and which has been stored under the same conditions, are measured.

In the case of `O=C1O[C@H]([C@@H](O)CO)C(O)=C1O` [ascorbic acid], the “Loss of active agent after storage for 2 months at 45° C., non-encapsulated control” value (“Loss of active agent … non-encapsulated control” below) is reported as 40%.

With chlorophylline, the “Loss of active agent … non-encapsulated control” value is 60%. Regarding cytochrome C, the “Loss of active agent … non-encapsulated control” value worked out at 60%.
